Values of other authors in patent publication US20040131704A1, “A method of organic and all natural treatment, prevention and relief of diaper dermatitis and other related skin irritations” (priority 2003, published 2004).

Key:
[1] = topical application of Lavender oil
[2] = test system: 18 strains of gram positive and gram-negative bacteria
[3] = relative activity of triterpenoids
epithelial formations = conditions: aqueous solution in strengths of 0.30 percent

C=CC(C)(CCC=C(C)C)OC(C)=O (stereo not shown) [linalyl acetate]
time of peak in the blood [1]: 19 min
time to detection in the blood [1]: five

C=CC(C)(O)CCC=C(C)C (stereo not shown) [Linalool]
time of peak in the blood [1]: 19 min
time to detection in the blood [1]: five
number of strains with antibacterial activity [2]: 17 out of 18 strains

faradoil monoester
anti-inflammatory activity [3]: most relevant principle for the activity of the drug

CC1=CC[C@@]2(C)[C@H]([C@@H]1C)[C@H]1CC[C@@H]3[C@@]4(C)CC[C@H](O)C(C)(C)[C@@H]4CC[C@@]3(C)[C@]1(C)C[C@@H]2O [faradiol]
anti-inflammatory activity [3]: most active of the tested compounds and equals indomethacian in activity

CC1=CCC2(C)CCC3(C)C(CCC4C5(C)CCC(O)C(C)(C)C5CCC43C)C2C1C (stereo not shown) [psi-taraxzsterol]
anti-inflammatory activity [3]: less active than the free diol

CC1(C)CC[C@]2(C)CC[C@]3(C)C(=CC[C@@H]4[C@@]5(C)CC[C@H](O)C(C)(C)[C@@H]5CC[C@]43C)[C@@H]2C1 [beta-amyrin]
anti-inflammatory activity [3]: less active than the free diol

NC(=O)NC1NC(=O)NC1=O (stereo not shown) [Allantoin]
action in strengthening epithelial formations (epithelial formations): powerful action

C=C(C)[C@@H]1CC[C@]2(C)CC[C@]3(C)[C@H](CC[C@@H]4[C@@]5(C)CC[C@H](O)C(C)(C)[C@@H]5CC[C@]43C)[C@@H]12 [lupeol]
anti-inflammatory activity [3]: less active than the free diol

C=C1CC[C@]2(C)CC[C@]3(C)[C@H](CC[C@@H]4[C@@]5(C)CC[C@H](O)C(C)(C)[C@@H]5CC[C@]43C)[C@H]2[C@@H]1C [taraxasterol]
anti-inflammatory activity [3]: less active than the free diol

CC12CCC(CC1)C(C)(C)O2 [cineole]
number of strains with antibacterial activity [2]: 16 out of 18 strains
